Assay results taken from patent publication US4164577A, “6-(2-Acylamino-2-arylacetamido)penicillanic acids” (priority 1977, dated 1979).
In brackets after ≈: the same amount, converted by molar mass.

Legend:
Test in all cases: in vitro antibacterial activity, minimum inhibitory concentration (agar dilution)
Assay type in all cases: cell-based
[1] = test system: Pseudomonas aeruginosa M-12; details: ATCC15692, 20 h, read-out: Minimum Inhibitory concentration (MIC) Pseudomonas aeruginosa M-12
Experimental: (§1) The compounds of this invention were tested for antibacterial activity according to the following procedure.
(§2) Nutrient broth and nutrient agar were prepared according to the conventional procedure. Nutrient agar was used as a vehicle. The stock solution was prepared at 100 μg/ml of the test material in the vehicle. Two-fold dilutions were made with the vehicle and then the diluted stock solution was added to a petri dish and solidified by chilling. Test organisms were grown in the nutrient broth for 20 hours at 37° C. The hardened surface was inoculated with a loopful of the test organism solution containing 1×10^6 cells per milliliter and incubated for 20 hours at 37° C. At the end of this period, growth of the organism was observed. […] The following Table 1 summarizes the activity of representative compounds as active antibacterial agents, and compares them with the reference drug Sulbenicillin.

[2] = test system: Pseudomonas aeruginosa M-16; details: ATCC15692, 20 h, read-out: Minimum Inhibitory concentration (MIC) Pseudomonas aeruginosa M-16
Experimental: as §1, §2

[3] = test system: Pseudomonas aeruginosa M-2008; details: ATCC15691, 20 h, read-out: Minimum Inhibitory concentration (MIC) Pseudomonas aeruginosa M-2008
Experimental: as §1, §2

Compound	MIC [1] [µg/mL]	MIC [2] [µg/mL]	MIC [3] [µg/mL]
CC1(C)S[C@@H]2[C@H](NC(=O)C(c3ccccc3)S(=O)(=O)O)C(=O)N2[C@H]1C(=O)O (stereo partly drawn) [11 Sulbenicillin, Sulbenicillin, reference compound]	25 (≈ 60.3 µM)	25 (≈ 60.3 µM)	25 (≈ 60.3 µM)
CC1(C)S[C@@H]2[C@H](NC(=O)[C@H](NC(=O)c3nc4cccnc4nc3O)c3ccc(O)cc3)C(=O)N2[C@H]1C(=O)O [Compound 2, potassium 6-[D-2-(3-hydroxypyrido[2,3-b]pyrazine-2-carboxamido)-2-(p-hydroxyphenyl)acetamido]penicillanate]	< 1.5	0.78	3.1
CC1(C)S[C@@H]2[C@H](NC(=O)[C@H](NC(=O)c3nc4cc(Cl)cnc4nc3O)c3ccc(O)cc3)C(=O)N2[C@H]1C(=O)O [Compound 4]		3.1 (≈ 5.41 µM)	6.2 (≈ 10.8 µM)
CC1(C)S[C@@H]2[C@H](NC(=O)[C@H](NC(=O)c3nc4cc(Br)cnc4nc3O)c3ccc(O)cc3)C(=O)N2[C@H]1C(=O)O [Compound 6]		< 1.5	3.1 (≈ 5.02 µM)
CC1(C)S[C@@H]2[C@H](NC(=O)[C@H](NC(=O)c3nc4cncnc4nc3O)c3ccc(O)cc3)C(=O)N2[C@H]1C(=O)O [Compound 8]		< 1.56	
Cc1nc2nc(O)c(C(=O)N[C@@H](C(=O)N[C@@H]3C(=O)N4[C@@H]3SC(C)(C)[C@@H]4C(=O)O)c3ccc(O)cc3)nc2cc1Br [Compound 10]		1.5 (≈ 2.38 µM)	
